Results reported in US6808884B2, “Methods and compositions for detecting polynucleotide duplex damage and errors” (California Institute of Technology, priority 2000, dated 2004).

Legend:
[1] = system: DNA duplexes with mismatch-sequence context combinations; assay: DNA photocleavage with bases 5′ and 3′ of the mismatch site systematically changed; assay type: biochemical; details: flanking bases 5′ and 3′ of the mismatch systematically changed
[2] = system: DNA duplexes (SEQ ID NO:1 / SEQ ID NO:2) having base-pair mismatches; assay: Photocleavage of 17mer DNA duplexes with varied X-Y base pair, 365 nm irradiation, PAGE analysis; assay type: biochemical; details: duplex 10 μM, complex 1 μM, pH 7.0, 13 min at 365 nm
Protocol: A set of DNA duplexes was prepared having the following sequence: 3′-[…]-5′(SEQ ID NO:1)
5′-[…]-3′(SEQ ID NO:2),
where X and Y were varied to provide A-T, G-C, and the following mismatches: C-C, C-A, T-T, A-A, T-C, T-G, G-A, and G-G. All oligonucleotides were prepared using standard phosphoramidite chemistry, and were purified by reverse phase HPLC. The oligonucleotides were 5′ end-labeled with γ-^32P ATP (Dupont-NEN) and T4 polynucleotide kinase (New England Biolabs).
Duplexes (10 μM) were incubated with Δ or Λ [Rh(bpy)2 (chrysi)]^3+(1 μM in 50 mM Tris, 20 mM NaOAc, 18 mM NaCl, pH 7.0) for 11 minutes, then irradiated for 13 min at 365 nm using an Oriel HgXe arc lamp. The products were analyzed by PAGE (20%, denaturing), imaged using a Molecular Dynamics Phosphorimager. […] Here, cleavage occurred to the 3′ side of the mismatch site. […] Unlike the other recognized mismatches, the cleavage 3′ to C-A results in two products having different gel mobility, possibly the result of chemically different polymer termini. The cleavage of A-A was also distinctive.

**Q.** Which “mismatch-sequence context combinations at which photocleavage was observed (count)” value [1] does the source give for “Δ-[Rh(bpy)2 (chrysi)]Cl3 [Δ-[Rh(bpy)2 (chrysi)]^3+]” here?
**A.** 83 of 104

**Q.** And the “mismatch-sequence context combinations at which photocleavage was observed (share)” value [1]?
**A.** 80%

**Q.** And the “photocleavage at A-A mismatch, at the A-A site itself” value [2]?
**A.** small amount of cleavage

**Q.** And the “photocleavage at A-A mismatch, base 3′ to the site” value [2]?
**A.** strong cleavage

**Q.** What about the “photocleavage at C-A mismatch” value ([2]; at the mismatched C and the neighbouring base 3′) of the same substance?
**A.** Strong cutting

**Q.** And the “photocleavage intensity at C-C mismatch” value ([2]; cleavage 3′ of the mismatch site)?
**A.** strongest cleavage intensity

**Q.** What about the “photocleavage intensity at T-C mismatch” value ([2]; compared with C-C) of the same substance?
**A.** less intense cleavage

**Q.** What about the “photocleavage intensity at T-T mismatch” value ([2]; compared with C-C) of the same substance?
**A.** less intense cleavage

**Q.** How did the “mismatch pairs cleaved among C-C, C-A, T-T, A-A, T-C, T-G, G-A, G-G” value [2] turn out when Λ[Rh(bpy)2 (chrysi)]Cl3 [Λ enantiomer] was run?
**A.** A-A mismatch is the only pair cleaved

**Q.** And the “photocleavage at A-A mismatch, relative to the other enantiomer” value [2]?
**A.** weaker cleavage than the Δ enantiomer
